Measurements reported in PubChem BioAssay AID1259407 (Chemical Carcinogenesis Research Information System (CCRIS), 2018).
Calls of active or inactive are those of the source. How the calls were made is not given here.

System: CCRIS mutagenicity, Ames/micronucleus/aberration tests
Experiment: CCRIS mutagenicity studies
Conditions: Method: PREINCUBATION

Measured: mutagenic call

C=C1CC(=O)O1
inactive: Test System: AMES SALMONELLA TYPHIMURIUM, Strain/Indicator: TA98, Metabolic Activation: NONE inactive; negative | Test System: AMES SALMONELLA TYPHIMURIUM, Strain/Indicator: TA98, Metabolic Activation: RAT LIVER S-9, PHENOBARBITAL AND BETA-NAPHTHOFLAVONE inactive; negative | Test System: AMES SALMONELLA TYPHIMURIUM, Strain/Indicator: TA100, Metabolic Activation: NONE inactive; negative | Test System: AMES SALMONELLA TYPHIMURIUM, Strain/Indicator: TA100, Metabolic Activation: RAT LIVER S-9, PHENOBARBITAL AND BETA-NAPHTHOFLAVONE inactive; negative | Test System: AMES SALMONELLA TYPHIMURIUM, Strain/Indicator: TA102, Metabolic Activation: NONE inactive; negative | Test System: AMES SALMONELLA TYPHIMURIUM, Strain/Indicator: TA102, Metabolic Activation: RAT LIVER S-9, PHENOBARBITAL AND BETA-NAPHTHOFLAVONE inactive; negative | Test System: AMES SALMONELLA TYPHIMURIUM, Strain/Indicator: TA104, Metabolic Activation: NONE inactive; negative | Test System: AMES SALMONELLA TYPHIMURIUM, Strain/Indicator: TA104, Metabolic Activation: RAT LIVER S-9, PHENOBARBITAL AND BETA-NAPHTHOFLAVONE inactive; negative | Test System: AMES SALMONELLA TYPHIMURIUM, Strain/Indicator: TA1535, Metabolic Activation: NONE inactive; negative | Test System: AMES SALMONELLA TYPHIMURIUM, Strain/Indicator: TA1535, Metabolic Activation: RAT LIVER S-9, PHENOBARBITAL AND BETA-NAPHTHOFLAVONE inactive; negative | Test System: AMES SALMONELLA TYPHIMURIUM, Strain/Indicator: TA1537, Metabolic Activation: NONE inactive; negative | Test System: AMES SALMONELLA TYPHIMURIUM, Strain/Indicator: TA1537, Metabolic Activation: RAT LIVER S-9, PHENOBARBITAL AND BETA-NAPHTHOFLAVONE inactive; negative | Test System: E.COLI, Strain/Indicator: WP2UVRA/PKM101, Metabolic Activation: NONE inactive; negative | Test System: E.COLI, Strain/Indicator: WP2UVRA/PKM101, Metabolic Activation: RAT LIVER S-9, PHENOBARBITAL AND BETA-NAPHTHOFLAVONE inactive; negative | Test System: E.COLI, Strain/Indicator: WP2UVRA, Metabolic Activation: NONE inactive; negative | Test System: E.COLI, Strain/Indicator: WP2UVRA, Metabolic Activation: RAT LIVER S-9, PHENOBARBITAL AND BETA-NAPHTHOFLAVONE inactive; negative
